Reference: US7553821B2, “Methods for selectively modulating survivin apoptosis pathways” (Yale University, priority 2000, dated 2009)

Tested on: HeLa cells
Assay: DNA content by propidium iodide staining and flow cytometry in transfected HeLa cells
Assay type: cell-based
Conditions: gated GFP-expressing cells, 48 h after transfection
Protocol: HeLa cells were transfected with GFP-survivin(T34A) in the presence or in the absence of 20 μM of the caspase inhibitor, Z-VAD-fmk. Gated GFP-expressing cells were analyzed 48 h after transfection for DNA content by propidium iodide staining and flow cytometry. The percentages of apoptotic cells with sub-G1 (hypodiploid) […] DNA content are indicated. Apoptotic HeLa cells in GFP-vector transfectants were 8%. Data are representative of one experiment out of at least three independent determinations.
Transfection experiments. For transient transfection, HeLa cells in C-6 tissue culture plates (Costar, Cambridge, Mass.) at ˜60-70% confluency, were incubated in 1 ml of serum-free OptiMEM medium (Life Technologies, Gaithersburg, Md.) for 20 min, and transfected with 2.5 μg of the various plasmid cDNAs plus 9 μl Lipofectamine (Life Technologies). After a 5 h incubation at 37° C., the mixture was aspirated and substituted with complete growth medium for 48-72 h. To generate stable YUSAC-2 transfectants, a survivin(T34A) cDNA was inserted into the HindIII-SpeI sites of the pTet-splice vector (Dr. D. Schatz, Yale University School of Medicine), downstream of the regulatory sequences of the Tet-resistance operon (TetO). […] Gated GFP-expressing cells were analyzed for DNA content by flow cytometry on a FACSort (Becton Dickinson, San Jose, Calif.) using a Cell Quest software. […]

survivin(T34A): dominant-negative, non-phosphorylatable survivin mutant with Thr34→Ala substitution, expressed from transfected cDNA (also HA- or GFP-tagged)
hypodiploid (sub-G1) DNA content: resulted in the appearance of HeLa cells with hypodiploid (sub-G1) DNA content
